PMC10790229 (Journal of medicinal chemistry, 2023)
Where two headings read alike, the source gives them in different places.

What was measured:
[1] = system: HIV-1 IIIB; assay: Anti-HIV-1 activity in MT-4 cells; type: cell-based; settings: for EC50: Human immunodeficiency virus 1, IIIB, MT4, read-out: EC50 IIIB; for fold improvement of anti-HIV-1 potency over 11L / fold improvement of anti-HIV-1 potency over PF74 / SI IIIB (CC50/EC50): HIV-1 IIIB; for fold improvement of anti-HIV-1 potency over 11L / fold improvement of anti-HIV-1 potency over PF74 / Ratio IIIB(EC50)/ROD(EC50) / SI IIIB (CC50/EC50): MT-4 cells
[2] = Cytotoxicity in uninfected MT-4 cells; type: cell-based; settings: human
[3] = human
[4] = target: HIV-1 CA-NC (Human immunodeficiency virus type 1 group M subtype B, UniProt P12493); assay: FRET-based in vitro CA assembly assay; type: biochemical; settings: 50 μM compound
[5] = target: monomeric HIV-1 CA NL4.3 protein (Human immunodeficiency virus type 1 group M subtype B, UniProt P12493); assay: SPR binding to monomeric HIV-1 CA; settings: for Residence Time Monomer / koff Monomer: SPR, CA monomer
[6] = target: reverse transcriptase (RT) (Human immunodeficiency virus type 1 group M subtype B, UniProt P04585); assay: In vitro reverse transcriptase inhibition assay; type: biochemical, HIV-1; settings: 900 nM
[7] = system: p24 content of produced pseudoviruses; assay: ELISA-based quantification of capsid; type: cell-based, HIV-1; settings: compound at 10× over EC50
[8] = in vitro; settings: human, microsomes
[9] = system: HIV-1; type: cell-based; settings: 1 μM compound; DMSO = 100
[10] = target: CPSF6 peptide binding to hexameric HIV-1 CA NL4.3 protein (Human immunodeficiency virus type 1, UniProt P12493); assay: SPR-based CPSF6 peptide competition assay; settings: read-out: IC50 CPSF6 peptide competition, CA hexamer
[11] = system: HIV-2 ROD; assay: Anti-HIV-2 activity in MT-4 cells; type: cell-based
[12] = in vitro; type: in vitro ADME; settings: human, plasma
[13] = system: hexameric HIV-1 CA NL4.3 protein; assay: SPR binding to disulfide-stabilized hexameric HIV-1 CA
[14] = target: hexameric HIV-1 CA NL4.3 protein (Human immunodeficiency virus type 1, UniProt P12493); assay: as above; settings: for Residence Time Hexamer / koff Hexamer: CA hexamer; for Kd: read-out: KD Hexamer, CA hexamer
[15] = In vivo pharmacokinetic study in SD rats; settings: Sprague-Dawley, rat
[16] = in vivo, cited from earlier work
[17] = system: HIV-1; settings: read-out: EC50 antiviral activity; MT-4 cells; cited from earlier work
[18] = Metabolic stability in human liver microsomes
[19] = system: MT-4 cells; assay: Cytotoxicity in uninfected MT-4 cells; type: cell-based
[20] = Human immunodeficiency virus 2, MT4, read-out: EC50 ROD

## COc1ccc(N(C)C(=O)[C@H](Cc2ccccc2)NC(=O)CN2CCN(S(=O)(=O)c3ccc(N)cc3)CC2=O)cc1 [11L, reference compound]
[1]
  EC50: 280 ± 90 nM
[2]
  CC50: 198000 ± 6850 nM

## COc1ccc(-n2c([C@H](Cc3cc(F)cc(F)c3)NC(=O)CN3CCN(S(=O)(=O)c4ccc(N)cc4)CC3=O)nc3ccccc3c2=O)cc1 [12a2, (S)-2-(4-((4-Aminophenyl)sulfonyl)-2-oxopiperazin-1-yl)-N-(2-(3,5-difluorophenyl)-1-(3-(4-methoxyphenyl)-4-oxo-3,4-dihydroquinazolin-2-yl)ethyl)acetamide]
[3]
  intrinsic CL in microsomes, CLint(mic): 143.4 mL/min/kg
[4]
  effect on CA assembly: enhance CA assembly
[1]
  fold improvement of anti-HIV-1 potency over 11L: 2.5 fold
  fold improvement of anti-HIV-1 potency over PF74: 7.3 fold
  EC50: 110 ± 30 nM
  Ratio IIIB(EC50)/ROD(EC50): 1.10
[5]
  Kd: 838 ± 170 nM
  Residence Time Monomer: 0.203 min
  koff Monomer: 0.082 ± 0.011 s⁻¹
[6]
  RT activity compared to RT control: about 80%
[7]
  p24 content of the produced virus: did not change significantly
[8]
  CLint scaled: 129 mL/min/kg
  half-life: 9.7 min
  microsomal CLint: 143 µL/min/mg
[8]; % Remaining (NCF = 60 min)
  remaining at 1 h: 107%
[8]; % Remaining (T = 60 min)
  remaining at 1 h: 1.1%
[2]
  CC50: > 178000 nM
[9]
  % Infection Early Stage: 0.092 ± 0.013%
  % Infection Late Stage: 0.019 ± 0.002%
[10]
  IC50: 189 ± 89.8 nM
[11]; HIV-2 ROD, MT-4 cells
  SI ROD (CC50/EC50): >1736.11
  fold improvement of anti-HIV-2 potency over PF74: approximately 40 fold
[11]; [20]
  EC50: 100 ± 10 nM
[12]
  remaining at 2 h: 110%
[13]
  Ratio KD Monomer/KD Hexamer: 1.490
[14]
  fold increase in affinity toward the CA hexamer compared to 11L: 2 fold
  Residence Time Hexamer: 0.321 min
  koff Hexamer: 0.052 ± 0.005 s⁻¹
  Kd: 561 ± 31 nM

## Nc1ccc(S(=O)(=O)N2CCN(CC(=O)N[C@@H](Cc3cc(F)cc(F)c3)c3nc4ccccc4c(=O)n3-c3ccc(S(=O)(=O)N4CCOCC4)cc3)C(=O)C2)cc1 [21a2, (S)-2-(4-((4-Aminophenyl)sulfonyl)-2-oxopiperazin-1-yl)-N-(2-(3,5-difluorophenyl)-1-(3-(4-(morpholinosulfonyl)phenyl)-4-oxo-3,4-dihydroquinazolin-2-yl)ethyl)acetamide]
[3]
  intrinsic CL in microsomes, CLint(mic): 312.7 mL/min/kg
[4]
  effect on CA assembly: enhance CA assembly
[15]; iv, 2 mg/kg
  AUC: 574 ± 151 ng·h/mL
  AUC(0-t): 572 ± 151 ng·h/mL
  C0: 2980 ± 545 ng/mL
  Cmax: 1650 ± 361 ng/mL
  MRT: 17 ± 2.81 min
  Tmax: 4.98 min
  Vd: 2.58 ± 0.707 L/kg
  half-life: 30.8 ± 10.6 min
[15]; iv, 2 mg/kg, CL (i.v.), SD rat, i.v. 2 mg/kg
  clearance: 60.5 mL/min/kg
[15]; po, 20 mg/kg
  AUC: 37.3 ng·h/mL
  AUC(0-t): 10.8 ± 17.4 ng·h/mL
  Cmax: 6.58 ± 8.24 ng/mL
  MRT: 182 min
  Tmax: 20 ± 8.64 min
  half-life: 121 min
[1]
  SI IIIB (CC50/EC50): >1329.79
  fold improvement of anti-HIV-1 potency over 11L: 2.5 fold
  fold improvement of anti-HIV-1 potency over PF74: 7.3 fold
  EC50: 110 ± 50 nM
  Ratio IIIB(EC50)/ROD(EC50): 1.38
[5]
  Kd: 244 ± 37 nM
  Residence Time Monomer: 0.417 min
  koff Monomer: 0.040 ± 0.007 s⁻¹
[6]
  RT activity compared to RT control: about 80%
[7]
  p24 content of the produced virus: did not change significantly
[8]
  CLint scaled: 282 mL/min/kg
  half-life: 4.4 min
  microsomal CLint: 313 µL/min/mg
[8]; % Remaining (NCF = 60 min)
  remaining at 1 h: 94.4%
[8]; % Remaining (T = 60 min)
  remaining at 1 h: 0.2%
[2]
  CC50: > 152000 nM
[9]
  % Infection Early Stage: 0.109 ± 0.046%
  % Infection Late Stage: 0.017 ± 0.003%
[10]
  IC50: 163 ± 47.1 nM
[11]; HIV-2 ROD, MT-4 cells
  SI ROD (CC50/EC50): >1923.08
[11]; [20]
  EC50: 80 ± 10 nM
[12]
  remaining at 2 h: 102%
[13]
  Ratio KD Monomer/KD Hexamer: 1.230
[14]
  Residence Time Hexamer: 1.389 min
  koff Hexamer: 0.012 ± 0.000 s⁻¹
  Kd: 199 ± 19 nM

## CC(C)(C#Cc1ccc(-c2ccc(Cl)c3c(NS(C)(=O)=O)nn(CC(F)(F)F)c23)c([C@H](Cc2cc(F)cc(F)c2)NC(=O)Cn2nc(C(F)(F)F)c3c2C(F)(F)[C@@H]2C[C@H]32)n1)S(C)(=O)=O [LEN, Lenacapavir]
[16]; po
  oral half-life T1/2: 240 to 288 h
[16]; sc
  subcutaneous half-life T1/2: 8–12 weeks

## COc1ccc(N(C)C(=O)[C@H](Cc2ccccc2)NC(=O)Cc2c(C)[nH]c3ccccc23)cc1 [PF74, reference compound]
[1]
  SI IIIB (CC50/EC50): >367.65
[5]
  Residence Time Monomer: 0.011 min
[8]
  CLint scaled at 1 h, 1 µM: 1900 mL/min/kg
[2]
  CC50: > 294000 nM
[11]; HIV-2 ROD, MT-4 cells
  SI ROD (CC50/EC50): >77.64
[11]; [20]
  EC50: 3780 ± 380 nM
[17]
  EC50: 870 nM
[14]
  Residence Time Hexamer: 0.463 min

## C[C@]12CC[C@H]3[C@@H](CCC4=CC(=O)CC[C@@]43C)[C@@H]1CC[C@@H]2O [Testosterone, testosterone]
[18]
  remaining at 1 h, 1 µM: 95.8%

## (S)-N-(2-(3,5-Difluorophenyl)-1-(7-fluoro-3-(4-methoxyphenyl)-4-oxo-3,4-dihydroquinazolin-2-yl)ethyl)-2-(4-((4-nitrophenyl)sulfonyl)-2-oxopiperazin-1-yl)acetamide [11b2]
[1]
  SI IIIB (CC50/EC50): >337.84
  Ratio IIIB(EC50)/ROD(EC50): 1.40
[19]
  CC50: > 167000 nM
[11]; HIV-2 ROD, MT-4 cells
  SI ROD (CC50/EC50): >480.77
[11]; read-out: EC50 ROD, 50% protection of MT-4 cells against HIV-induced cytotoxicity, HIV-2 ROD
  EC50: 350 ± 30 nM
